The assay concerns P388 leukemia ip, CD2F1 mice, survival T/C. The experiment in a line: NCI In Vivo Anticancer Drug Screen. Data for tumor model P388 Leukemia (intraperitoneal) in CD2F1 (CDF1) mice. The note with it: endpoint: median survival time, higher = longer survival. A digest of the protocol:
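Mice carrying the transplanted tumor received test compound or vehicle. Survival was recorded in each group, and the value is the treated-group measurement divided by that of the vehicle-treated control group.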

Where [1] appears, read: dose: 6.25 mg/kg/injection, schedule: Q01DX009 (ip), vehicle: saline with Tween-80.
[2] abbreviates: dose: 50.0 mg/kg/injection, schedule: Q01DX009 (ip), vehicle: saline.

Data on eleven molecules can be found in PubChem BioAssay AID330 (DTP/NCI, 2004).

Several values for one entry are separate records, joined by “and”; a condition that tells them apart may be missing. Equal entries are not always repeated. Inconclusive results and toxic doses are left out.

For the molecule `N#CCN(CC#N)CC#N`, the T/C is, setting by setting: (dose: 1.56 mg/kg/injection, schedule: Q01DX009 (ip), vehicle: saline with Tween-80) 104 % of control; (dose: 1.56 mg/kg/injection, schedule: Q04DX003 (ip), vehicle: saline with Tween-80) 95 % of control; (dose: 3.13 mg/kg/injection, schedule: Q01DX009 (ip), vehicle: saline with Tween-80) 90 % of control; (dose: 3.13 mg/kg/injection, schedule: Q04DX003 (ip), vehicle: saline with Tween-80) 90 % of control; under setting [1], 109 % of control; (dose: 6.25 mg/kg/injection, schedule: Q04DX003 (ip), vehicle: saline with Tween-80) 90 % of control.
As to `COc1cc2cc(-c3ccc4c(c3)OCO4)[n+](C)cc2cc1OC`, the T/C is 100 % of control (dose: 6.25 mg/kg/injection, schedule: Q01DX001 (ip), vehicle: Klucel (hydroxypropylcellulose) (HPC)); 107 % of control (dose: 12.5 mg/kg/injection, schedule: Q01DX001 (ip), vehicle: Klucel (hydroxypropylcellulose) (HPC)); 110 % of control (dose: 25.0 mg/kg/injection, schedule: Q01DX001 (ip), vehicle: Klucel (hydroxypropylcellulose) (HPC)); 96 % of control (dose: 50.0 mg/kg/injection, schedule: Q01DX001 (ip), vehicle: Klucel (hydroxypropylcellulose) (HPC)).
Consider `CC(=O)c1ccc([N+](=O)[O-])cc1Cl`, for which the T/C is, setting by setting: (dose: 100.0 mg/kg/injection, schedule: Q04DX002 (ip), vehicle: saline with Tween-80) 106 % of control; (dose: 200.0 mg/kg/injection, schedule: Q04DX002 (ip), vehicle: saline with Tween-80) 106 % of control; (dose: 400.0 mg/kg/injection, schedule: Q04DX002 (ip), vehicle: saline with Tween-80) 103 % of control.
Regarding `Cc1cc2nncn2c2nnnn12`, the T/C was 101 % of control (dose: 6.25 mg/kg/injection, schedule: Q01DX005 (ip), vehicle: water); 102 % of control (dose: 12.5 mg/kg/injection, schedule: Q01DX005 (ip), vehicle: water); 108 % of control (dose: 25.0 mg/kg/injection, schedule: Q01DX005 (ip), vehicle: water); 108 % of control (dose: 50.0 mg/kg/injection, schedule: Q01DX005 (ip), vehicle: water); 105 % of control (dose: 100.0 mg/kg/injection, schedule: Q01DX005 (ip), vehicle: water); 101 % of control (dose: 200.0 mg/kg/injection, schedule: Q01DX005 (ip), vehicle: water).
With `COC12[C@@H]3N[C@@H]3CN1C1=C(C(=O)C(NCCSSCCNC3=C(C)C(=O)C4=C(C3=O)C(COC(N)=O)[C@]3(OC)C5N[C@@H]5CN43)=C(C)C1=O)[C@@H]2COC(N)=O` (stereo partly specified), the T/C reads like this: (dose: 3.12 mg/kg/injection, schedule: Q01DX001 (ip), vehicle: DMSO) 157 % of control; (dose: 6.25 mg/kg/injection, schedule: Q01DX001 (ip), vehicle: DMSO) 161 % of control; (dose: 12.5 mg/kg/injection, schedule: Q01DX001 (ip), vehicle: DMSO) 177 % of control; (dose: 25.0 mg/kg/injection, schedule: Q01DX001 (ip), vehicle: DMSO) 233 % of control.
As for `CC(C)(C)n1nnnc1Cl`, the T/C (dose: 50.0 mg/kg/injection, schedule: Q01DX009 (ip), vehicle: Klucel (hydroxypropylcellulose) (HPC)) was 107 % of control; the T/C (dose: 100.0 mg/kg/injection, schedule: Q01DX009 (ip), vehicle: Klucel (hydroxypropylcellulose) (HPC)) is 102 % of control; the T/C (dose: 200.0 mg/kg/injection, schedule: Q01DX009 (ip), vehicle: Klucel (hydroxypropylcellulose) (HPC)) was 107 % of control.
On to `Cc1ccc(S(=O)(=O)N2CCC2)cc1`, for which the T/C was 90 % of control (dose: 100.0 mg/kg/injection, schedule: Q01DX009 (ip), vehicle: saline with Tween-80); 95 % of control (dose: 200.0 mg/kg/injection, schedule: Q01DX009 (ip), vehicle: saline with Tween-80); 100 % of control (dose: 400.0 mg/kg/injection, schedule: Q01DX009 (ip), vehicle: saline with Tween-80).
For `Clc1nnc(Cl)c(Cl)c1Cl`, the T/C reads like this: (dose: 0.1 mg/kg/injection, schedule: Q01DX009 (ip), vehicle: saline with Tween-80) 100 % of control; (dose: 0.1 mg/kg/injection, schedule: Q04DX003 (ip), vehicle: saline with Tween-80) 100 % of control; (dose: 0.2 mg/kg/injection, schedule: Q01DX009 (ip), vehicle: saline with Tween-80) 95 % of control; (dose: 0.2 mg/kg/injection, schedule: Q04DX003 (ip), vehicle: saline with Tween-80) 100 % of control; (dose: 0.38 mg/kg/injection, schedule: Q04DX003 (ip), vehicle: saline with Tween-80) 90 % of control; (dose: 0.4 mg/kg/injection, schedule: Q04DX003 (ip), vehicle: saline with Tween-80) 100 % of control.
For the molecule `CCN(CC)CCCC(C)NC(=O)c1ccc2c(c1O)C(=O)c1ccccc1C2=O` (stereo unspecified), the T/C was 100 % of control and 102 % of control (dose: 1.25 mg/kg/injection, schedule: Q01DX009 (ip), vehicle: water); 101 % of control and 105 % of control (dose: 2.5 mg/kg/injection, schedule: Q01DX009 (ip), vehicle: water); 106 % of control and 108 % of control (dose: 5.0 mg/kg/injection, schedule: Q01DX009 (ip), vehicle: water); 99 % of control and 101 % of control and 94 % of control (dose: 10.0 mg/kg/injection, schedule: Q01DX009 (ip), vehicle: water); 99 % of control and 101 % of control (dose: 20.0 mg/kg/injection, schedule: Q01DX009 (ip), vehicle: water).
For the molecule `N=C(N)SCc1nc(-c2ccc(Cl)cc2)no1`, the T/C runs as follows: under setting [1], 109 % of control; (dose: 6.25 mg/kg/injection, schedule: Q01DX009 (ip), vehicle: saline) 98 % of control; (dose: 12.5 mg/kg/injection, schedule: Q01DX009 (ip), vehicle: saline with Tween-80) 106 % of control; (dose: 12.5 mg/kg/injection, schedule: Q01DX009 (ip), vehicle: saline) 104 % of control and 106 % of control; (dose: 25.0 mg/kg/injection, schedule: Q01DX009 (ip), vehicle: saline with Tween-80) 106 % of control; (dose: 25.0 mg/kg/injection, schedule: Q01DX009 (ip), vehicle: saline) 108 % of control and 111 % of control. Further, the T/C by setting is: (dose: 50.0 mg/kg/injection, schedule: Q01DX009 (ip), vehicle: saline with Tween-80) 113 % of control; under setting [2], 110 % of control and 121 % of control and 123 % of control.
Turning to `C[CH2][Ge]([CH2]C)[CH2]C.C[CH2][Ge]([Cl])[CH2]C.C[CH2][Ge][CH2]C`, the T/C runs as follows: under setting [2], 104 % of control; (dose: 100.0 mg/kg/injection, schedule: Q01DX009 (ip), vehicle: saline) 103 % of control; (dose: 200.0 mg/kg/injection, schedule: Q01DX009 (ip), vehicle: saline) 103 % of control.
